Experimental data from BindingDB's records for doi:10.1046/j.1471-4159.2002.00817.x (Uppsala University, 2002).

Tests used:
[1] = target: T1, Neuropeptide Y receptor type 1 (Gallus gallus, UniProt Q8QFM1)
T1 sequence (Q8QFM1 whole entry): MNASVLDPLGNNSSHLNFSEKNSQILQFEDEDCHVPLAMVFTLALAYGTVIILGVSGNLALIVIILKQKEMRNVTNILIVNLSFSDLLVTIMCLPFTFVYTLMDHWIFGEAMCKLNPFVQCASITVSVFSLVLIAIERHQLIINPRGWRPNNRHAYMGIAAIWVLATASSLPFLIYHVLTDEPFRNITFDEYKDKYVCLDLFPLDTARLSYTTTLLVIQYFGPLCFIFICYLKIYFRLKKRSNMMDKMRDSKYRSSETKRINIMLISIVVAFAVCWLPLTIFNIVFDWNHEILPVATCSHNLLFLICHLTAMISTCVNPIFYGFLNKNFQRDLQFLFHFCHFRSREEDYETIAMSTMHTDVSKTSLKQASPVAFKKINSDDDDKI

[2] = target: T2, Neuropeptide Y receptor type 5 (Gallus gallus, UniProt Q8QFM2)
T2 sequence (Q8QFM2 whole entry): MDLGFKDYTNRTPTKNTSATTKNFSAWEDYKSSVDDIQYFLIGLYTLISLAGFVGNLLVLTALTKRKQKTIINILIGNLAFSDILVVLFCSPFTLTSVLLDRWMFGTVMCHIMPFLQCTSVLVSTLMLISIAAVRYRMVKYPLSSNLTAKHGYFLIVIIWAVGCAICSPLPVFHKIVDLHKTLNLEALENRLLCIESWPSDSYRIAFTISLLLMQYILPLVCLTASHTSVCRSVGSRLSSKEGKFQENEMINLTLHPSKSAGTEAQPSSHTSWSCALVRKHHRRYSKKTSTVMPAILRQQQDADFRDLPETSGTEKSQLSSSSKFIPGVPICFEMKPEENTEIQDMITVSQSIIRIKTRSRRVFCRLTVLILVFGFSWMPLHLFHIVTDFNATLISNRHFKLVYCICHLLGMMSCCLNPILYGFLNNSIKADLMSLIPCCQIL

Q: `CN(C)CC1CCC(CN=C(N)c2ccc(CC(NC(=O)C(Cc3ccccc3)NS(=O)(=O)c3ccc4ccccc4c3)C(=O)N3CCCC3)cc2)CC1` (stereo unspecified) [CAS_5312150] was tested. Which Ki [1] did it give?
A: Its Ki is greater than 10 µM.

Q: What about the Ki [2] of the same compound?
A: Its Ki is greater than 10 µM.

Q: `N=C(N)NCCCC(NC(=O)C(c1ccccc1)c1ccccc1)C(=O)NCc1ccc(O)cc1` (stereo unspecified) [NSC_5311023] was tested. Which Ki [2] did it give?
A: The Ki was greater than 10 µM.

Q: For `CC[C@H](C)[C@H](NC(=O)[C@H](Cc1ccc(O)cc1)NC(=O)[C@H](CCCNC(=N)N)NC(=O)[C@H](CCCNC(=N)N)NC(=O)[C@H](CC(C)C)NC(=O)[C@H](CC(=O)O)NC(=O)[C@H](C)NC(=O)[C@H](C)NC(=O)[C@H](Cc1ccc(O)cc1)NC(=O)[C@H](CCC(N)=O)NC(=O)[C@H](C)NC(=O)[C@H](CCSC)NC(=O)[C@H](CCC(N)=O)NC(=O)[C@H](CCC(=O)O)NC(=O)[C@@H]1CCCN1C(=O)[C@@H](NC(=O)[C@H](C)NC(=O)[C@H](CC(N)=O)NC(=O)[C@H](CC(=O)O)NC(=O)CNC(=O)[C@@H]1CCCN1C(=O)[C@H](Cc1ccc(O)cc1)NC(=O)[C@@H](NC(=O)[C@@H]1CCCN1C(=O)[C@H](CCC(=O)O)NC(=O)[C@H](CC(C)C)NC(=O)[C@@H]1CCCN1C(=O)[C@H](C)N)C(C)C)[C@@H](C)O)C(=O)N[C@@H](CC(N)=O)C(=O)N[C@@H](CCSC)C(=O)N[C@@H](CC(C)C)C(=O)N[C@H](C(=O)N[C@@H](CCCNC(=N)N)C(=O)N1CCC[C@H]1C(=O)N[C@@H](CCCNC(=N)N)C(=O)N[C@@H](Cc1ccc(O)cc1)C(N)=O)[C@@H](C)O` [CAS_59763-91-6], which Ki [1] is on record?
A: Its Ki is greater than 10 µM.

Q: And the Ki [2]?
A: Its Ki is 0.00048 µM.

Q: Which Ki [1] does the source give for `NC(N)=NCCCC(NC(=O)CC1(CC(=O)N2CCN(C3c4ccccc4NC(=O)c4ccccc43)CC2)CCCC1)C(=O)NCCn1c(=O)n(-c2ccccc2)n(-c2ccccc2)c1=O` (stereo unspecified) [NSC_5311024] here?
A: Its Ki is greater than 10 µM.

Q: What does the source list for `O=c1oc2ccccc2c(O)c1C1CC(c2ccc(-c3ccccc3)cc2)Cc2ccccc21` (stereo unspecified) [NSC_41735]?
A: Ki [1]: > 10 µM; Ki [2]: 0.00081 µM

Q: For “H-GPSQPTYPGDDAPVEDLIRFYNDLQQYLNVVTRHRY-NH2 [NSC_0]”, which Ki [1] is on record?
A: The Ki was greater than 10 µM.

Q: What about the Ki [2] of the same compound?
A: Its Ki is 0.00468 µM.

Q: Which Ki [1] does the source give for `Nc1nc(NC[C@H]2CC[C@H](CNS(=O)(=O)c3cccc4ccccc34)CC2)nc2ccccc12` [CGP 71683] here?
A: The Ki was greater than 10 µM.
